Broadly, the Ki is the equilibrium dissociation constant of an inhibitor or competing ligand from its target.

Data on 33 compounds can be found in patent publication US12479830B2, “Homopiperazinyl and homopiperidinyl quinazolin-4(3H)-one derivatives having multimodal activity against pain” (ESTEVE PHARMACEUTICALS, S.A., priority 2019, dated 2025).

Molecules are shown by their SMILES.

Assay [1] deals with Human α2δ-1 subunit of Cav2.2 calcium channel (Homo sapiens, UniProt P54289). Nature of the assay: Human α2δ-1 subunit of Cav2.2 calcium channel assay ([3H]-gabapentin binding). To be noted: binding to the α2δ-1 subunit of voltage-gated calcium channels, expressed as Ki class; + also covers inhibition between 1% and 50%. The procedure, abridged: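 Affinity (Ki, five concentrations) or % inhibition at 1 or 10 μM, from displacement of 15 nM [3H]-gabapentin on human α2δ-1 membranes. Incubation 60 min, 27° C., Hepes-KOH 10 mM pH 7.4; 10 μM pregabalin defined non-specific binding; bound radioactivity counted after GF/C filtration.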

Assay [2] has as its target T1, Human σ1 receptor (Homo sapiens, UniProt Q99720).
T1 construct: expressed in transfected cells; host or cells: HEK-293
Nature of the assay: Human σ1 receptor radioligand assay ([3H](+)-pentazocine binding). To be noted: binding to the σ1 receptor, expressed as Ki class; + also covers inhibition between 1% and 50%. The procedure, abridged: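 Ki was derived from five test concentrations, or % inhibition was measured at a single 1 or 10 μM dose, against 5 nM [3H](+)-pentazocine. Incubation was 120 min at 37° C in 50 mM Tris-HCl pH 8 with 7 μg HEK-293 membranes, and 10 μM haloperidol set non-specific binding. Bound radioactivity was counted after filtration.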

T1 sequence (Q99720 whole entry): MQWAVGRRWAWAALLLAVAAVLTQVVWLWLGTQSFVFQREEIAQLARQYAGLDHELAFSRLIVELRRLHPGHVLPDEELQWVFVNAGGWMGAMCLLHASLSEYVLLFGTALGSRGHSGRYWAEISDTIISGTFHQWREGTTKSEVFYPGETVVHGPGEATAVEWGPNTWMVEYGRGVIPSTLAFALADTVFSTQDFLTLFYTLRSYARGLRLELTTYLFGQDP
Human α2δ-1 subunit of Cav2.2 calcium channel, sequence (P54289 25-1103): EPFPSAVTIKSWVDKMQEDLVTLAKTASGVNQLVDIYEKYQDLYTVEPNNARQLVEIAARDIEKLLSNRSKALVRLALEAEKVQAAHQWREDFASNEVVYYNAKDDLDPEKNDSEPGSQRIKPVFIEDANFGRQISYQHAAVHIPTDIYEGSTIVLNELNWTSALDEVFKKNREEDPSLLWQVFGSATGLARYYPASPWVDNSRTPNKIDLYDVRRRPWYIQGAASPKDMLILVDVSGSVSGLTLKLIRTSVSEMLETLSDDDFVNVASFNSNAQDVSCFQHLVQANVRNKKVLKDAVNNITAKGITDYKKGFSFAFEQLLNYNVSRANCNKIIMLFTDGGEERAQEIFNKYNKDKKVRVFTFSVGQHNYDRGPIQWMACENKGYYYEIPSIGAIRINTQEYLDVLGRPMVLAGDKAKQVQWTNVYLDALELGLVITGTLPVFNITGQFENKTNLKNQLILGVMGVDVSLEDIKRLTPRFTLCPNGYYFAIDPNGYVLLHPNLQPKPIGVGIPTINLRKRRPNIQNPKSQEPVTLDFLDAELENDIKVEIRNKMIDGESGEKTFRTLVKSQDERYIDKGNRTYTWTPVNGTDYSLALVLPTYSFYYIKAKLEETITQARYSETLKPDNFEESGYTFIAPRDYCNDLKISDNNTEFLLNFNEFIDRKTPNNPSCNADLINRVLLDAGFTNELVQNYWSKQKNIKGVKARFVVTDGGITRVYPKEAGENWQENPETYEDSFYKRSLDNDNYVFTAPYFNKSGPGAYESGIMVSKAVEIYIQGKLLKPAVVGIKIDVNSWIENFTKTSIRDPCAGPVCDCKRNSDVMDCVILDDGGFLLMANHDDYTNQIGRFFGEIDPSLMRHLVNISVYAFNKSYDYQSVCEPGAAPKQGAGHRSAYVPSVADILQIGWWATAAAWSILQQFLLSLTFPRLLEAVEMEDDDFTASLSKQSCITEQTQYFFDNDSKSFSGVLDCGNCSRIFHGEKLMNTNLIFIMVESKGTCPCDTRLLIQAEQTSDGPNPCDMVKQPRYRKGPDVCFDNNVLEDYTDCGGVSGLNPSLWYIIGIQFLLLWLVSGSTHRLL

As for `CCC[C@@H](c1nc2cc(F)c(Cl)cc2c(=O)n1CC)N1CCNC[C@H](C)C1` [Example 120, 6-chloro-3-ethyl-7-fluoro-2-((S)-1-((S)-6-methyl-1,4-diazepan-1-yl)butyl)quinazolin-4(3H)-one], the inhibitory constant (Ki) was above 5000 nM in assay [1] and above 1000 nM in assay [2].
The corresponding values for `CCC[C@@H](c1nc2ccc(Br)cc2c(=O)n1CC)N1CCN(C)C[C@@H](C)C1` [Example 38, 6-bromo-2-((S)-1-((R)-4,6-dimethyl-1,4-diazepan-1-yl)butyl)-3-ethylquinazolin-4(3H)-one] are above 5000 nM and above 1000 nM.
On the same counts, the results for `CCC[C@@H](c1nc2cc(Cl)c(Cl)cc2c(=O)n1CC)N1CCNC[C@H](C)C1` [Example 111, 6,7-dichloro-3-ethyl-2-((S)-1-((S)-6-methyl-1,4-diazepan-1-yl)butyl)quinazolin-4(3H)-one] are 500 to 5000 nM and above 1000 nM.
The corresponding values for `CCCC(c1nc2ccc(F)c(F)c2c(=O)n1CC)N1CCCN(CC)CC1` (stereo not drawn) [Example 78, 3-ethyl-2-(1-(4-ethyl-1,4-diazepan-1-yl)butyl)-5,6-difluoroquinazolin-4(3H)-one] are 500 to 5000 nM and below 500 nM.
As for `CCCC(c1nc2cc(Br)c(F)cc2c(=O)n1CCC)N1CCCN(CC)CC1` (stereo not drawn) [Example 62, 7-bromo-2-(1-(4-ethyl-1,4-diazepan-1-yl)butyl)-6-fluoro-3-propylquinazolin-4(3H)-one], the Ki in assay [1] and in assay [2] was below 500 nM in each case.
As for `CCC[C@H](c1nc2ccc(F)cc2c(=O)n1Cc1ccoc1)N1CCCN(C)CC1` [Example 227], the inhibition constant Ki in assay [1] and in assay [2] was below 500 nM each time.
For `CCCC(c1nc2c(Cl)cc(F)cc2c(=O)n1CC)N1CCCNCC1` (stereo not drawn) [Example 71, 2-(1-(1,4-diazepan-1-yl)butyl)-8-chloro-3-ethyl-6-fluoroquinazolin-4(3H)-one], the inhibitory constant (Ki) in assay [1] is above 5000 nM; in assay [2] it was above 1000 nM.
Regarding `CCC[C@H](c1nc2cc(F)c(F)cc2c(=O)n1CC)N1CCCN[C@H](C)C1` [Example 261, 3-ethyl-6,7-difluoro-2-((R)-1-((R)-3-methyl-1,4-diazepan-1-yl)butyl)quinazolin-4(3H)-one], the Ki in assay [1] was below 500 nM; in assay [2] it was above 1000 nM.
On the same counts, the results for `CCCC(c1nc2ccc(Br)cc2c(=O)n1CC)N1CCCN(C)CC1` (stereo not drawn) [Example 1, 6-Bromo-3-ethyl-2-(1-(4-methyl-1,4-diazepan-1-yl)butyl)quinazolin-4(3H)-one] are below 500 nM and below 500 nM.
For `CCCC(c1nc2c(Cl)cc(F)cc2c(=O)n1CC)N1CCCN(CC)CC1` (stereo not drawn) [Example 65, 8-chloro-3-ethyl-2-(1-(4-ethyl-1,4-diazepan-1-yl)butyl)-6-fluoroquinazolin-4(3H)-one], the Ki in assay [1] is above 5000 nM; in assay [2], above 1000 nM.
For the compound `CCCC(c1nc2ccc(Cc3ccccc3)cc2c(=O)n1CC)N1CCCN(C)CC1` (stereo not drawn) [Example 207, 6-Benzyl-3-ethyl-2-(1-(4-methyl-1,4-diazepan-1-yl)butyl)quinazolin-4(3H)-one], the inhibition constant (Ki) in assay [1] was below 500 nM; in assay [2] it was 500 to 1000 nM.
The corresponding values for `CCCC(c1nc2cc(C)c(Br)cc2c(=O)n1CC)N1CCCN(CC)CC1` (stereo not drawn) [Example 48, 6-bromo-3-ethyl-2-(1-(4-ethyl-1,4-diazepan-1-yl)butyl)-7-methylquinazolin-4(3H)-one] are below 500 nM and below 500 nM.
On the same counts, the results for `CCC[C@H](c1nc2ccc(Br)cc2c(=O)n1CC)N1CCNC[C@@H](O)C1` [Example 114, 6-bromo-3-ethyl-2-((R)-1-((R)-6-hydroxy-1,4-diazepan-1-yl)butyl)quinazolin-4(3H)-one] are below 500 nM and above 1000 nM.
The corresponding values for `CCC[C@H](c1nc2ccc(F)c(F)c2c(=O)n1CC)N1CCN[C@@H](C)CC1` [Example 240, 3-ethyl-5,6-difluoro-2-((R)-1-((S)-5-methyl-1,4-diazepan-1-yl)butyl)quinazolin-4(3H)-one] are below 500 nM and below 500 nM.
`CCCC(c1nc2cc(F)c(Br)cc2c(=O)n1CCC)N1CCCNCC1` (stereo not drawn) [Example 34, 2-(1-(1,4-diazepan-1-yl)butyl)-6-bromo-7-fluoro-3-propylquinazolin-4(3H)-one]: the Ki was below 500 nM in assay [1] and above 1000 nM in assay [2].
The corresponding values for `CCC[C@@H](c1nc2cc(F)c(Br)cc2c(=O)n1CC)N1CCNC[C@@H](C)C1` [Example 99] are 500 to 5000 nM and above 1000 nM.
On the same counts, the results for `CCC[C@H](c1nc2ccc(Br)cc2c(=O)n1CCC)N1CCNC[C@H](C)C1` [Example 67, 6-bromo-2-((R)-1-((S)-6-methyl-1,4-diazepan-1-yl)butyl)-3-propylquinazolin-4(3H)-one] are below 500 nM and above 1000 nM.
On to `CCCC(c1nc2ncc(Br)cc2c(=O)n1CC1CC1)N1CCCN(C)CC1` (stereo not drawn) [Example 183, 6-bromo-3-(cyclopropylmethyl)-2-(1-(4-methyl-1,4-diazepan-1-yl)butyl)pyrido[2,3-d]pyrimidin-4(3H)-one], for which the results for the Ki in assay [1] and in assay [2] were below 500 nM and above 1000 nM, respectively.
On the same counts, the results for `CCCC(c1nc2nc(C(F)(F)F)ccc2c(=O)n1CC)N1CCCN(C)CC1` (stereo not drawn) [Example 190, 3-ethyl-2-(1-(4-methyl-1,4-diazepan-1-yl)butyl)-7-(trifluoromethyl)pyrido[2,3-d]pyrimidin-4(3H)-one] are 500 to 5000 nM and above 1000 nM.
On the same counts, the results for `CCCC(c1nc2cc(F)c(Cl)cc2c(=O)n1CC)N1CCCNCC1` (stereo not drawn) [Example 90, 2-(1-(1,4-diazepan-1-yl)butyl)-6-chloro-3-ethyl-7-fluoroquinazolin-4(3H)-one] are below 500 nM and above 1000 nM.
On the same counts, the results for `CCCC(c1nc2ccncc2c(=O)n1CC)N1CCCNCC1` (stereo not drawn) [Example 172, 2-(1-(1,4-diazepan-1-yl)butyl)-3-ethylpyrido[4,3-d]pyrimidin-4(3H)-one] are below 500 nM and above 1000 nM.
Take `CCC[C@@H](c1nc2cc(Cl)c(Cl)cc2c(=O)n1CC)N1CCNC[C@@H](C)C1` [Example 112, 6,7-dichloro-3-ethyl-2-((S)-1-((R)-6-methyl-1,4-diazepan-1-yl)butyl)quinazolin-4 (3H)-one]: the Ki in assay [1] was above 5000 nM; in assay [2], above 1000 nM.
For `CCCC(c1nc2ccc(Cl)cc2c(=O)n1CC)N1CCCNCC1` (stereo not drawn) [Example 22, 2-(1-(1,4-diazepan-1-yl)butyl)-6-chloro-3-ethylquinazolin-4(3H)-one], the results for the inhibition constant Ki in assay [1] and in assay [2] were below 500 nM and above 1000 nM, respectively.
The corresponding values for `CCCC(c1nc2ccc(Br)cc2c(=O)n1CC(=O)O)N1CCCN(C)CC1` (stereo not drawn) [Example 208, 2-(6-Bromo-2-(1-(4-methyl-1,4-diazepan-1-yl)butyl)-4-oxoquinazolin-3(4H)-yl)acetic acid] are above 5000 nM and above 1000 nM.
On the same counts, the results for `CCC[C@@H](c1nc2cc(F)c(Cl)cc2c(=O)n1CC)N1CCNC[C@@H](C)C1` [Example 121, 6-chloro-3-ethyl-7-fluoro-2-((S)-1-((R)-6-methyl-1,4-diazepan-1-yl)butyl)quinazolin-4 (3H)-one] are above 5000 nM and above 1000 nM.
In the case of `CCC[C@H](c1nc2cc(F)c(OC)cc2c(=O)n1CC)N1CCN(C)C[C@@H](C)C1` [Example 237, 2-((R)-1-((R)-4,6-dimethyl-1,4-diazepan-1-yl)butyl)-3-ethyl-7-fluoro-6-methoxyquinazolin-4(3H)-one], the values for the Ki in assay [1] and in assay [2] were below 500 nM and above 1000 nM, respectively.
On the same counts, the results for `CCC[C@@H](c1nc2ccc(F)cc2c(=O)n1CC)N1CCCN[C@@H](C)C1` [Example 144, 3-ethyl-6-fluoro-2-((S)-1-((S)-3-methyl-1,4-diazepan-1-yl)butyl)quinazolin-4(3H)-one] are above 5000 nM and above 1000 nM.
The corresponding values for `CCC[C@H](c1nc2ccncc2c(=O)n1CC)N1CCCN(C)CC1` [Example 173, (R)-3-Ethyl-2-(1-(4-methyl-1,4-diazepan-1-yl)butyl)pyrido[4,3-d]pyrimidin-4(3H)-one] are below 500 nM and above 1000 nM.
On the same counts, the results for `CCC[C@H](c1nc2c(F)cc(F)cc2c(=O)n1CC)N1CCN[C@H](C)CC1` [Example 250, 3-ethyl-6,8-difluoro-2-((R)-1-((R)-5-methyl-1,4-diazepan-1-yl)butyl)quinazolin-4(3H)-one] are above 5000 nM and above 1000 nM.
Take `CCC[C@H](c1nc2ncc(Br)cc2c(=O)n1CC)N1CCCN(CC)CC1` [Example 176, 6-bromo-3-ethyl-2-(1-(4-ethyl-1,4-diazepan-1-yl)butyl)pyrido[2,3-d]pyrimidin-4(3H)-one]: the figures for the Ki in assay [1] and in assay [2] were above 5000 nM and above 1000 nM, respectively.
Turning to `CCC[C@H](c1nc2ccc(F)cc2c(=O)n1CCC)N1CCCN(CC)CC1` [Example 212, (R)-2-(1-(4-ethyl-1,4-diazepan-1-yl)butyl)-6-fluoro-3-propylquinazolin-4(3H)-one], the inhibition constant (Ki) in assay [1] and in assay [2] was below 500 nM in each case.
`CCCC(c1nc2cnc(C(F)(F)F)cc2c(=O)n1CC)N1CCCN(C)CC1` (stereo not drawn) [Example 192, 3-ethyl-2-(1-(4-methyl-1,4-diazepan-1-yl)butyl)-6-(trifluoromethyl)pyrido[3,4-d]pyrimidin-4(3H)-one]: the inhibition constant (Ki) was below 500 nM in assay [1] and above 1000 nM in assay [2].
On the same counts, the results for `CCC[C@H](c1nc2ccc(F)cc2c(=O)n1C)N1CCN[C@@H](C)CC1` [Example 256, 6-fluoro-3-methyl-2-((R)-1-((S)-5-methyl-1,4-diazepan-1-yl)butyl)quinazolin-4(3H)-one] are 500 to 5000 nM and below 500 nM.
